Data reported in PMC11249646, “Small-Molecule Disruptors of the Interaction between Calcium- and Integrin-Binding Protein 1 and Integrin αIIbβ3 as Novel Antiplatelet Agents” (ACS Pharmacology & Translational Science, 2024).
Where two headings read alike, the source gives them in different places.

Legend:
[1] = target: T1, CIB1 and αIIb interaction (CIB1-GST : F-αIIb peptide) (Homo sapiens, UniProt Q99828); test: FP assay, 1536-well qHTS format (primary and confirmatory screen); type: binding; settings: for CONFIRMATORY SCREEN Curve Class / Curve Class (confirmatory screen): qHTS curve class
T1 construct: made in house; host or cells: BL-21 plus RIL cells (E. coli)
T1 sequence (Q99828 1-191): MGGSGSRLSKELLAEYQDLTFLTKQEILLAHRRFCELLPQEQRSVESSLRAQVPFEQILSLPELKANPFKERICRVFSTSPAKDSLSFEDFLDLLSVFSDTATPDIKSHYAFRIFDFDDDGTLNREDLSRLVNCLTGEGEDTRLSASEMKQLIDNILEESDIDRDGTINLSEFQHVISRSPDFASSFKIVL

[2] = target: T2, GST-CIB1 : F-scrambled peptide (Homo sapiens, UniProt Q99828); test: FP scrambled-peptide counter screen, 1536-well format; type: binding; settings: for COUNTERSCREEN Curve Class / Curve Class (counterscreen): qHTS curve class
T2 construct: made in house; host or cells: BL-21 plus RIL cells (E. coli)
T2 sequence (Q99828 1-191): T1 sequence (Q99828 1-191)

[3] = qHTS FP screen hits, Table S2, negative = inhibition
[4] = qHTS FP screen hits, Table S2, one class per curve where COUNT > 1, negative sign = inhibitory curve
[5] = qHTS FP screen hits, Table S2, read-out: IC50
[6] = confirmatory screen, negative sign = inhibitory curve
[7] = confirmatory screen, read-out: IC50 [μM] (confirmatory screen)
[8] = counterscreen, negative sign = inhibitory curve
[9] = counterscreen, read-out: IC50 [μM] (counterscreen)
[10] = Table S3, confirmatory screen, YES/NO call
[11] = Table S3, confirmatory screen, a negative sign marks inhibitory curves
[12] = Table S3, confirmatory screen, negative = inhibition
[13] = Table S3, confirmatory screen, read-out: IC50 [μM] (confirmatory screen)
[14] = qHTS primary screen hits, Table S2, negative = inhibition
[15] = qHTS primary screen hits, Table S2, negative sign = inhibitory curve, several classes where COUNT > 1
[16] = qHTS primary screen hits, Table S2, read-out: IC50
[17] = Table S3, counterscreen, a negative sign marks inhibitory curves
[18] = Table S3, counterscreen, negative = inhibition
[19] = Table S3, counterscreen, read-out: IC50 [μM] (counterscreen)
[20] = qHTS primary screen hits, Table S2, negative sign = inhibitory curve
[21] = scrambled-peptide counterscreen

SMILES	Efficacy (%) [1, 3] [%]	IC50 [1, 5] [µM]	Efficacy (%) (confirmatory screen) ([1]; confirmatory screen)	Confirm? (confirmatory screen) ([1]; confirmatory screen, YES/NO)	Curve Class (confirmatory screen) [1, 6]	IC50 [1, 7] [µM]	Efficacy (%) (counterscreen) ([2]; counterscreen)	Curve Class (counterscreen) [2, 8]	IC50 [2, 9] [µM]	Efficacy (%) [1, 14] [%]	Curve Class [1, 15]	IC50 [1, 16] [µM]	also measured
Fc1ccc(NC(=S)Nc2nnc(-c3ccncc3)s2)cc1C(F)(F)F.O=C(O)C(F)(F)F [NCGC00241743-01]	-41	22.4	–	–	–	–	–	–	–	–	–	–	CONFIRMATORY SCREEN Efficacy (%) ([1]; confirmatory screen): -35%; CONFIRMATORY SCREEN Curve Class ([1]; confirmatory screen): 4; Curve Class [1, 4]: -2.2; COUNTERSCREEN Efficacy (%) ([2]; counterscreen): 39%; COUNTERSCREEN Curve Class ([2]; counterscreen): 4
C=C1C(=O)O[C@@H]2[C@H]3C(C)=CC(=O)C3=C(C)[C@@H](OC(=O)/C(C)=C\C)[C@H](O)[C@@H]12 [NCGC00380702-01]	-35	3.5	-43	YES	-1.2	1.6	-39	-1.2	1.6	–	–	–	Curve Class [1, 4]: -1.2
CC(O)c1ccc(-c2ccc3ncnc(N4CCOCC4)c3c2)o1.O=C(O)C(F)(F)F (stereo not drawn) [NCGC00238381-02]	-19	14.1	–	–	–	–	–	–	–	–	–	–	CONFIRMATORY SCREEN Efficacy (%) ([1]; confirmatory screen): -26%; CONFIRMATORY SCREEN Curve Class ([1]; confirmatory screen): 4; COUNTERSCREEN Efficacy (%) ([2]; counterscreen): -14%; COUNTERSCREEN Curve Class ([2]; counterscreen): 4
O=C(N/N=C1\C(=O)N(CCc2ccccc2)c2ccccc21)c1cccnc1 [NCGC00420788-01]	–	–	–	–	–	–	–	–	–	-28	-1.4	22.4	Confirm? (confirmatory screen) [1, 10]: YES; Curve Class (confirmatory screen) [1, 11]: -2.2; Efficacy (%) (confirmatory screen) [1, 12]: -58%; IC50 [1, 13]: 39.8 µM; Curve Class (counterscreen) [2, 17]: -2.2; Efficacy (%) (counterscreen) [2, 18]: -65%; IC50 [2, 19]: 44.7 µM
Nc1ccc(CNc2ccc(S(=O)(=O)Nc3nccs3)cc2)c(O)c1.O=C(O)C(F)(F)F [NCGC00273962-01]	–	–	-75	YES	-3	89.1	-61	-2.2	50.1	-29	–	39.8	Curve Class [1, 20]: -2.4
O=C(O)CSc1cc(NS(=O)(=O)c2ccc(Br)cc2)c2ccccc2c1O [NCGC00386409-01]	-87	44.7	-92	YES	-1.1	12.6	-60	-1.2	5	–	–	–	Curve Class [1, 4]: -2.2
N#Cc1ccc(NS(=O)(=O)c2ccc(Nc3nc(-c4ccccc4)cs3)cc2)cc1.O=C(O)C(F)(F)F [NCGC00262382-01]	-59	70.8	-103	YES	-2.1	44.7	-84	-2.2	44.7	–	–	–	Curve Class [1, 4]: -2.2
O=C1NC(c2ccc(N3CCOCC3)cc2)(c2ccsc2)CC(O)=C1Sc1ccccc1Cl (stereo not drawn) [NCGC00388532-05]	–	–	-53	YES	-2.4	44.7	-48	-2.2	31.6	-27	-1.4	0.9	–
CC(C)c1ccc(NC(=S)N/N=C2\C(=O)Nc3ccccc32)cc1.O=C(O)C(F)(F)F [NCGC00242646-01]	–	–	–	–	–	–	–	–	–	-16	-1.4	10	Curve Class (confirmatory screen) [1, 11]: 4; Efficacy (%) (confirmatory screen) [1, 12]: -28%; Confirm? (counterscreen) ([2]; Table S3, counterscreen, YES/NO call): YES; Curve Class (counterscreen) [2, 17]: -1.2; Efficacy (%) (counterscreen) [2, 18]: -36%; IC50 [2, 19]: 12.6 µM
NC(=O)c1ncn([C@@H]2O[C@H](CO)[C@@H](O)[C@H]2O)c1O [NCGC00094087-05]	–	–	–	–	–	–	–	–	–	-52	-1.2	20	CONFIRMATORY SCREEN Efficacy (%) ([1]; confirmatory screen): -5.43%; CONFIRMATORY SCREEN Curve Class ([1]; confirmatory screen): 4; COUNTERSCREEN Efficacy (%) ([2]; counterscreen): 0%; COUNTERSCREEN Curve Class ([2]; counterscreen): 4
CCC(OC(=O)c1ccc(S(C)(=O)=O)c([N+](=O)[O-])c1)C(=O)NC1C2CC3CC(C2)CC1C3 (stereo not drawn) [NCGC00188536-01]	–	–	–	–	–	–	–	–	–	-27	-1.4	1.4	CONFIRMATORY SCREEN Confirm? ([1]; confirmatory screen, YES/NO call): YES; CONFIRMATORY SCREEN Curve Class [1, 6]: -1.4; CONFIRMATORY SCREEN Efficacy (%) ([1]; confirmatory screen, negative = inhibition): -52%; IC50 ([1]; confirmatory screen, read-out: CONFIRMATORY SCREEN IC50): 2.5 µM; COUNTERSCREEN Efficacy (%) [2, 21]: -50%; COUNTERSCREEN Confirm? ([2]; scrambled-peptide counterscreen, YES/NO call): YES; COUNTERSCREEN Curve Class [2, 21]: -2.2; IC50 ([2]; scrambled-peptide counterscreen, read-out: COUNTERSCREEN IC50): 31.6 µM
CCOC(=O)c1[nH]c2c(c1C)C(=S)CC(c1ccco1)C2.O=C(O)C(F)(F)F (stereo not drawn) [NCGC00238571-01]	–	–	-73	YES	-1.2	35.5	-30	-1.4	7.1	-69	-2.2	50.1	–
O=C(O)C(F)(F)F.O=C1Nc2ccccc2/C1=N/NC(=S)Nc1ccc(Oc2ccccc2)cc1 [NCGC00229524-01]	–	–	–	–	–	–	–	–	–	-25	–	2.8	Confirm? (confirmatory screen) [1, 10]: YES; Curve Class (confirmatory screen) [1, 11]: -1.4; Efficacy (%) (confirmatory screen) [1, 12]: -29%; IC50 [1, 13]: 12.6 µM; Curve Class [1, 20]: -1.4; Curve Class (counterscreen) [2, 17]: -1.4; Efficacy (%) (counterscreen) [2, 18]: -38%; IC50 [2, 19]: 4 µM
Cc1ccc(S(=O)(=O)Nc2cnccc2C(=O)Nc2ccc(-c3nnn[nH]3)cc2)cc1.O=C(O)C(F)(F)F [NCGC00343837-01]	–	–	-63	YES	-2.4	35.5	-40	4	–	-24	–	31.6	Curve Class [1, 20]: -2.4; Confirm? (counterscreen) ([2]; counterscreen, YES/NO): YES
Oc1ccc(-c2nnn[nH]2)c2cccnc12 [NCGC00184885-01]	–	–	-40	YES	-3	79.4	-19	-1.4	35.5	-31	-1.2	14.1	–
N#Cc1ccc(NS(=O)(=O)c2ccc(NC(=O)Cc3ccc(Cl)c(Cl)c3)cc2)cc1.O=C(O)C(F)(F)F [NCGC00253445-01]	–	–	–	–	–	–	–	–	–	–	–	–	Curve Class (confirmatory screen) [1, 11]: 2.3; Efficacy (%) (confirmatory screen) [1, 12]: 146%; Efficacy (%) (counterscreen) [2, 18]: 202%; IC50 [2, 19]: 70.8 µM
